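Each compound was tested at five concentrations against cells in 96-well plates for 48 hours. TGI: concentration producing complete growth inhibition.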
Experiments:
Experiment in all cases: NCI tumour cell line growth inhibition, 48 h
P388/ADR leukemia = test system: P388/ADR leukemia
LXFL 529 NSCLC = test system: LXFL 529 NSCLC
XF 498 CNS = test system: XF 498 CNS

## CC1(C)N=C(N)N=C(N)N1c1ccc(CCc2ccccc2)cc1
P388/ADR leukemia
  TGI: > 100 µM

## CC(OC(C)(C)C)[C@H](NC(=O)OCC(Cl)(Cl)Cl)C(=O)O (stereo partly specified)
LXFL 529 NSCLC
  TGI: > 100 µM
XF 498 CNS
  TGI: > 100 µM

## O=C(O)CCC(NC(=O)c1ccc(Nc2nc3cc(C(F)(F)F)ccc3nc2-c2ccccc2)cc1)C(=O)O (stereo unspecified)
XF 498 CNS
  TGI: > 100 µM
P388/ADR leukemia
  TGI: > 100 µM

## NCc1ccccc1-c1c2nc(c(-c3ccccc3CN)c3ccc([nH]3)c(-c3ccccc3CN)c3nc(c(-c4ccccc4CN)c4ccc1[nH]4)C=C3)C=C2
LXFL 529 NSCLC
  TGI: 46.5 µM

Reference: PubChem BioAssay (NCI)
